system: Chlamydia; assay: effect of chemical inhibitors of GMPS on Chlamydia infection; type: cell-based; details: chemical inhibitor of GMPS added to infected cells
Experimental: The effect of chemical inhibitors of GMPS on Chlamydia infection was tested.

Compound | Chlamydia replication
C=C1O[C@@](CO)(n2cnc3c(N)ncnc32)[C@H](O)[C@@H]1O [Decoyinine] | no inhibitory effect

system: C. trachomatis L2; assay: genome-wide siRNA-based screen in human epithelial cells, formation of Chlamydia infectious progeny; type: cell-based; details: Table 1b, primary screen, genes of nucleotide metabolism
Excerpt: We performed a genome-wide siRNA-based screen in human epithelial cells to identify host cell factors that are essential for Chlamydia infection using the Qiagen Hu_Genome Set V1.0 and the Human Druggable Genome siRNA Set V2.0. C. trachomatis L2 was used.

Compound | Infectivity phenotype upon Knockdown
Hs_HPRT1_6: siRNA, target gene HPRT1 (sense CCCACGAAGTGTTGGATATAA; chemistry not given here; the letters are possibly those of the target site) | down
Hs_ADCY8_5: siRNA, target gene ADCY8 (sense CACCGGCATTGAGGTAGTGAT; chemistry not given here; the letters are possibly those of the target site) | down
Hs_IMPDH2_8: siRNA, target gene IMPDH2 (sense AATGTGGGTCATATTGCGAAA; chemistry not given here; the letters are possibly those of the target site) | down
Hs_NME1_5: siRNA, target gene NME1 (sense TTCCGCCTTGTTGGTCTGAAA; chemistry not given here; the letters are possibly those of the target site) | down
Hs_NME2_22: siRNA, target gene NME2 (sense CAGCACTACATTGACCTGAAA; chemistry not given here; the letters are possibly those of the target site) | down
Hs_PDE2A_3: siRNA, target gene PDE2A (sense ACCGCTTTGTACATGAGAATA; chemistry not given here; the letters are possibly those of the target site) | down
Hs_GMPS_2: siRNA, target gene GMPS (sense AAGAATTTCCTTTATGATATA; chemistry not given here; the letters are possibly those of the target site) | down
Hs_PAPSS2_1: siRNA, target gene PAPSS2 (sense ATGGAAGGTCCTGACAGATTA; chemistry not given here; the letters are possibly those of the target site) | down
Hs_ENTPD4_2: siRNA, target gene ENTPD4 (sense CAGCAGAAAGCTATTCTGGAA; chemistry not given here; the letters are possibly those of the target site) | down
Hs_PDE6B_4: siRNA, target gene PDE6B (sense GCCCACCACATTTGACATCTA; chemistry not given here; the letters are possibly those of the target site) | down
Hs_ENPP1_2: siRNA, target gene ENPP1 (sense TGGGCAAACAGTAGACTTATA; chemistry not given here; the letters are possibly those of the target site) | down
Hs_ENPP6_1: siRNA, target gene ENPP6 (sense TTGGATAATTCTATACATAAA; chemistry not given here; the letters are possibly those of the target site) | down
Hs_GMPR2_12: siRNA, target gene GMPR2 (sense TTGGACCTTCACATATCTAAA; chemistry not given here; the letters are possibly those of the target site) | down
Hs_AMPD3_1: siRNA, target gene AMPD3 (sense CGGGATCACTTTGGAGGACTA; chemistry not given here; the letters are possibly those of the target site) | down
Hs_ENPP6_2: siRNA, target gene ENPP6 (sense CAGGGTGATGTGCATGCTGAA; chemistry not given here; the letters are possibly those of the target site) | down
Hs_NME2P1_2: siRNA, target gene NME2P1 (sense CAGGTTGGCAGGAACATCATT; chemistry not given here; the letters are possibly those of the target site) | down
Hs_IMPDH1_6: siRNA, target gene IMPDH1 (sense CAGCAGCAGCCAGAAACGATA; chemistry not given here; the letters are possibly those of the target site) | down
Hs_ENPP3_2: siRNA, target gene ENPP3 (sense TAGCAATTTGGTACCTATGTA; chemistry not given here; the letters are possibly those of the target site) | down

Compound | Infectivity phenotype upon Knockdown
Hs_PDE2A_4: siRNA, target gene PDE2A (sense ATCGCGGAGCTGATCTACAAA; chemistry not given here; the letters are possibly those of the target site) | down
Hs_PDE6B_2: siRNA, target gene PDE6B (sense CACGCTGCTCATGACCGGCAA; chemistry not given here; the letters are possibly those of the target site) | down
Hs_NPR2_8: siRNA, target gene NPR2 (sense CAGCTCAGCCCTGTACATATA; chemistry not given here; the letters are possibly those of the target site) | down
Hs_NME2P1_4: siRNA, target gene NME2P1 (sense CCTGGTGGGCAAGATCATCAA; chemistry not given here; the letters are possibly those of the target site) | down
Hs_GMPS_1: siRNA, target gene GMPS (sense AACAGAGAACTTGAGTGTATT; chemistry not given here; the letters are possibly those of the target site) | down
Hs_ENPP5_1: siRNA, target gene ENPP5 (sense AAGCATTTAATTCACAGTCAA; chemistry not given here; the letters are possibly those of the target site) | down
Hs_ITPA_2: siRNA, target gene ITPA (sense CTGGAGAAGTTAAAGCCTGAA; chemistry not given here; the letters are possibly those of the target site) | down
Hs_PDE4A_4: siRNA, target gene PDE4A (sense ATGGGAAGTCGTGTCATCCTA; chemistry not given here; the letters are possibly those of the target site) | down
Hs_ENPP3_1: siRNA, target gene ENPP3 (sense CTGGCTGTTAGGAGTAAATCA; chemistry not given here; the letters are possibly those of the target site) | down
Hs_AMPD3_9: siRNA, target gene AMPD3 (sense CAACAGTTTGTTCCTCGAATA; chemistry not given here; the letters are possibly those of the target site) | down
Hs_ADCY8_8: siRNA, target gene ADCY8 (sense CAGGCCGCCTTTGAGTCTTTA; chemistry not given here; the letters are possibly those of the target site) | down
Hs_NME2_6: siRNA, target gene NME2 (sense TGGGCTGGTGAAGTACATGAA; chemistry not given here; the letters are possibly those of the target site) | down
Hs_NME1_8: siRNA, target gene NME1 (sense TCCGAAGATCTTCTCAAGGAA; chemistry not given here; the letters are possibly those of the target site) | down
Hs_NME3_3: siRNA, target gene NME3 (sense CTGCATCGAGGTTGGCAAGAA; chemistry not given here; the letters are possibly those of the target site) | down
Hs_IMPDH2_6: siRNA, target gene IMPDH2 (sense TGGGATCCGGCTAAAGAAATA; chemistry not given here; the letters are possibly those of the target site) | down
Hs_PDE1A_4: siRNA, target gene PDE1A (sense ACACAGAGTGCTATAACTATA; chemistry not given here; the letters are possibly those of the target site) | down
Hs_HPRT1_9: siRNA, target gene HPRT1 (sense CCACAGCACTATTGAGTGAAA; chemistry not given here; the letters are possibly those of the target site) | down

— patent US20130116302A1, “PHARMACEUTICAL COMPOSITION FOR THE TREATMENT OF CHLAMYDIAL INFECTION” (Max-Planck-Gesellschaft zur Foerderung der Wissenschaften …, priority 2010, published 2013)
